Assay results reported in patent US9605027B2, “Polypeptides that bound to IL-23 receptor and inhibit binding of IL-23 and cell signaling thereof” (Medical Diagnostic Laboratories, LLC, priority 2011, dated 2017).
Peptide text beside a SMILES is read from it.

Molecular target: IL-23 induced IL-22 production in human PBMCs (Homo sapiens, UniProt Q5VWK5)
Experiment: IL-22 production induced by IL-23 in human PBMC
Assay type: cell-based
Settings: IL-23 2 ng/ml, ELISA; read-out: IC50, inhibition of IL-22 production
Description: Peripheral blood mononuclear cells (PBMCs) were isolated from heparinized venous whole blood from healthy donors by density gradient centrifugation using Ficoll-Paque (Sigma-Aldrich, St Louis, Mo., USA). Human venous blood was purchased as anonymous buffy coats from the New Jersey Blood Transfusion Service. After isolation, the PBMCs were cultured in RPMI-1640 medium (Invitrogen-Gibco, Carlsbad, Calif.) supplemented with 10% heat-inactivated fetal bovine serum (Invitrogen-Gibco) and 1 mM of glutamine (Invitrogen-Gibco) at 37° C.
Isolated PBMCs (5×10^6 cells/ml) were cultured in the presence of […] and IL-18 (20 ng/ml). A serial dilution of IL-23 (from 0-2 ng/ml) was added to the cell culture for 30 hours. We measured the production of IL-22 by ELISA (Catalog #88-7522, eBioscience, San Diego, Calif.) according to manufacturer's protocol).
In order to measure the IC50 value of cyclic peptide no. 2HT AA (SEQ ID NO: 177), the cells were treated with a fixed amount of IL-23 cytokine (2 ng/ml) in the presence of a serial dilution of cyclic peptide no. 2HT AA (SEQ ID NO: 177). The cyclic peptide (SEQ ID NO: 177) inhibits IL-23 cytokine in PBMCs in a dose-dependent manner. […] Thus, the cyclic peptide no.

Chain of IL-23 induced IL-22 production in human PBMCs (Q5VWK5 24-629 limits assumed): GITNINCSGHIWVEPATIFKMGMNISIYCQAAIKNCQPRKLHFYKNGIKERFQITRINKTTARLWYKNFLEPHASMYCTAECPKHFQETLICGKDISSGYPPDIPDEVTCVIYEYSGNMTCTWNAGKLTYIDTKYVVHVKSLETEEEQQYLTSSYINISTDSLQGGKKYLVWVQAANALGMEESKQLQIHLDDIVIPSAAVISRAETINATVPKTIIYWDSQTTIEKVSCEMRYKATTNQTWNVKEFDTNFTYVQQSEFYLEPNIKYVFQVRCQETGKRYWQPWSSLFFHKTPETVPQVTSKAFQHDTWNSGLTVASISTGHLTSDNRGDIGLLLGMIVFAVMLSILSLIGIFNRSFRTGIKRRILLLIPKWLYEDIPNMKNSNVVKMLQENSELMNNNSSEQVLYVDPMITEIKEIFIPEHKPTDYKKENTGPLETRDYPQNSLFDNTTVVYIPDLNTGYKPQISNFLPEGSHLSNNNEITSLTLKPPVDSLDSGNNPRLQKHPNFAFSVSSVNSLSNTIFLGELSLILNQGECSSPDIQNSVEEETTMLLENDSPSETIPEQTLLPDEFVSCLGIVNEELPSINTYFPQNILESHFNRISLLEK

CSCC[C@@H]1NC(=O)[C@H](CCCCN)NC(=O)[C@H](C)NC(=O)[C@H](C)NC(=O)[C@H](CS)NC(=O)[C@H](CC(N)=O)NC(=O)[C@H](CCCCN)NC(=O)[C@H](CC(C)C)NC(=O)[C@H](Cc2c[nH]c3ccccc23)NC(=O)[C@H](Cc2ccc(O)cc2)NC(=O)[C@H](CC(=O)O)NC(=O)[C@H](C(C)C)NC(=O)[C@H](Cc2c[nH]c3ccccc23)NC(=O)[C@H]([C@@H](C)O)NC1=O [2HT AA] (cyclo(AAKMTWVDYWLKNC))
IC50: 337 nM
